Results reported in patent publication US10471149B2 (Insmed Incorporated, priority 2012, dated 2019).
Where two headings read alike, the source gives them in different places.

How the values were obtained:
[1] = cited from earlier work
[2] = animal models of meningitis caused by pneumococci; cited from earlier work
[3] = Chemical stability of vancomycin in aqueous solution (CDP-I formation by HPLC): effect of pH, organic bases, ethanol, ammonium ions; conditions: 4° C. (FIG. 7); high concentration and low pH
Method: Selected samples were also incubated at a lower concentration (20 mg/mL).
In buffered samples, an appropriate amount of buffer or amino acid additive was added. The pH values were chosen to cover the range between the lowest and highest acceptable values of pH, including pH 5.0 for lipid stability reasons and pH 6.5, above which degradation is expected to be impractically fast.
The concentration of 200 mg/mL was chosen to mimic what a high intra-liposomal might be but was no higher than this for practical handling purposes. All samples were liquid solutions upon preparation.
For comparison, lower concentration solutions (20 mg/mL) also were prepared by diluting 200 mg/mL samples 10-fold in water. Samples were incubated at 4° C. (in refrigerator) and at ambient temperature (about 23° C., which is referred herein to as “room temperature” or “RT”).

| Compound | AUC ([1]; in vivo) [µg·h/mL] | Protein binding ([1]; in vivo) [%] | Vd ([1]; in vivo) [L/kg] | concentration in cerebrospinal fluid, % of the serum level [2] [%] | AUC [1] [µg·h/mL] | Protein binding [1] | Terminal half-life [1] [h] | Vd [1] [L/kg] | degradation rate [3] |
| --- | --- | --- | --- | --- | --- | --- | --- | --- | --- |
| CN[C@H]1C(=O)N[C@@H]2Cc3ccc(cc3)Oc3cc4cc(c3O[C@@H]3O[C@H](C(=O)O)[C@@H](O)[C@H](O)[C@H]3NC(=O)CCCCCCCCC(C)C)Oc3ccc(cc3Cl)[C@@H](O)[C@@H]3NC(=O)[C@H](NC(=O)[C@@H]4NC(=O)[C@@H](NC2=O)c2cc(cc(O)c2Cl)Oc2cc1ccc2O)c1ccc(O)c(c1)-c1c(O[C@H]2O[C@H](CO)[C@@H](O)[C@H](O)[C@@H]2O)cc(O)cc1[C@@H](C(=O)NCCCN(C)C)NC3=O [Dalbavanc in, Dalbavancin] | 27103 | 98 | 0.11 | – | – | – | – | – | – |
| CN[C@H](CC(C)C)C(=O)N[C@H]1C(=O)N[C@@H](CC(N)=O)C(=O)N[C@H]2C(=O)N[C@H]3C(=O)N[C@H](C(=O)N[C@H](C(=O)O)c4cc(O)cc(O)c4-c4cc3ccc4O)[C@H](O[C@H]3C[C@](C)(N)[C@@H](O)[C@H](C)O3)c3ccc(c(Cl)c3)Oc3cc2cc(c3O[C@@H]2O[C@H](CO)[C@@H](O)[C@H](O)[C@H]2O[C@H]2C[C@](C)(NCc3ccc(-c4ccc(Cl)cc4)cc3)[C@@H](O)[C@H](C)O2)Oc2ccc(cc2Cl)[C@H]1O [Oritavancin] | – | – | – | 5 | 152 | 90% | 360 | – | – |
| CCCCCCCCCCNCCN[C@@]1(C)C[C@H](O[C@H]2[C@H](Oc3c4cc5cc3Oc3ccc(cc3Cl)[C@@H](O)[C@@H](NC(=O)[C@@H](CC(C)C)NC)C(=O)N[C@@H](CC(N)=O)C(=O)N[C@H]5C(=O)N[C@H]3C(=O)N[C@H](C(=O)N[C@H](C(=O)O)c5cc(O)c(CNCP(=O)(O)O)c(O)c5-c5cc3ccc5O)[C@H](O)c3ccc(c(Cl)c3)O4)O[C@H](CO)[C@@H](O)[C@@H]2O)O[C@@H](C)[C@H]1O [Telavancin] | – | – | – | – | 600 | 90-93% | 7 | – | – |
| CN[C@H](CC(C)C)C(=O)N[C@H]1C(=O)N[C@@H](CC(N)=O)C(=O)N[C@H]2C(=O)N[C@H]3C(=O)N[C@H](C(=O)N[C@H](C(=O)O)c4cc(O)cc(O)c4-c4cc3ccc4O)[C@H](O)c3ccc(c(Cl)c3)Oc3cc2cc(c3O[C@@H]2O[C@H](CO)[C@@H](O)[C@H](O)[C@H]2O[C@H]2C[C@](C)(N)[C@H](O)[C@H](C)O2)Oc2ccc(cc2Cl)[C@H]1O [Vancomycin] | – | – | – | – | 260 | 10-55% | 4 to 8 | 0.3 | about 0.1 % per week |
| Teicoplanin | – | – | – | – | 550 | 90% | 83 to 168 | 0.9 to 1.6 | – |
